Several values for one entry are separate records, joined by “and”; a condition that tells them apart may be missing. Identical values can stand only once.
System: 313798-341-R-J2-PDC spheroids, viability
Test: Anticancer human tumor 313798-341-R-J2-PDC patient-derived cervical squamous cell carcinoma cell line growth inhibition [PI3K]
Conditions: spheroids with HUVEC and MSC; for viability, T/C: stronger effect = lower value
Outline: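 Combination activity was assessed by viability in multicellular tumor spheroids carrying HUVEC and MSC components. Agents were tested with PI3K inhibitors from a Cmax-based top dose (or 10 microM) downward in half-log increments.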

[1] = curve of first compound, second compound 0.00316 µM
[2] = curve of first compound, second compound 0.01 µM
[3] = curve of first compound, second compound 0.0316 µM
[4] = curve of first compound, second compound 0.1 µM
[5] = curve of first compound, second compound 0.316 µM
[6] = curve of first compound, second compound 1 µM
[7] = second compound 0.00316 µM, first compound 0.0316 µM
[8] = second compound 0.00316 µM, first compound 0.1 µM
[9] = second compound 0.01 µM, first compound 0.0316 µM
[10] = second compound 0.01 µM, first compound 0.1 µM
[11] = second compound 0.0316 µM, first compound 0.0316 µM
[12] = second compound 0.0316 µM, first compound 0.1 µM
[13] = second compound 0.1 µM, first compound 0.0316 µM
[14] = second compound 0.1 µM, first compound 0.1 µM
[15] = second compound 0.316 µM, first compound 0.0316 µM
[16] = second compound 0.316 µM, first compound 0.1 µM
[17] = second compound 1 µM, first compound 0.0316 µM
[18] = second compound 1 µM, first compound 0.1 µM
[19] = second compound 0.00316 µM, first compound 0.316 µM
[20] = second compound 0.00316 µM, first compound 1 µM
[21] = second compound 0.00316 µM, first compound 3.16 µM
[22] = second compound 0.00316 µM, first compound 10 µM
[23] = second compound 0.01 µM, first compound 0.316 µM
[24] = second compound 0.01 µM, first compound 1 µM
[25] = second compound 0.01 µM, first compound 3.16 µM
[26] = second compound 0.01 µM, first compound 10 µM
[27] = second compound 0.0316 µM, first compound 0.316 µM
[28] = second compound 0.0316 µM, first compound 1 µM
[29] = second compound 0.0316 µM, first compound 3.16 µM
[30] = second compound 0.0316 µM, first compound 10 µM
[31] = second compound 0.1 µM, first compound 0.316 µM
[32] = second compound 0.1 µM, first compound 1 µM
[33] = second compound 0.1 µM, first compound 3.16 µM
[34] = second compound 0.1 µM, first compound 10 µM
[35] = second compound 0.316 µM, first compound 0.316 µM
[36] = second compound 0.316 µM, first compound 1 µM
[37] = second compound 0.316 µM, first compound 3.16 µM
[38] = second compound 0.316 µM, first compound 10 µM
[39] = second compound 1 µM, first compound 0.316 µM
[40] = second compound 1 µM, first compound 1 µM
[41] = second compound 1 µM, first compound 3.16 µM
[42] = second compound 1 µM, first compound 10 µM
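Note: spheroids exposed to compounds for seven days.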
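Throughout, for viability, T/C: 100% = DMSO vehicle control viability.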

With CC(=O)c1c(C)c2cnc(Nc3ccc(N4CCNCC4)cn3)nc2n(C2CCCC2)c1=O + CC(Nc1ccc2c(c1)OCCn1cc(N3C(=O)OCC3C(F)F)nc1-2)C(N)=O the IC50 [1] was > 100 nM, the IC50 [2] was > 100 nM and the IC50 [3] was > 100 nM. The IC50 [4] was > 100 nM, the IC50 [5] was > 100 nM and the IC50 [6] was > 100 nM. The viability, T/C (second compound 0.00316 µM, first compound 0.000316 µM) was 98.7%, the viability, T/C (second compound 0.00316 µM, first compound 0.001 µM) was 97.9% and the viability, T/C (second compound 0.00316 µM, first compound 0.00316 µM) was 107%. It also gave a viability, T/C (second compound 0.00316 µM, first compound 0.01 µM) of 102%, a viability, T/C [7] of 110% and a viability, T/C [8] of 102%. The viability, T/C (second compound 0.01 µM, first compound 0.000316 µM) was 94.2%, the viability, T/C (second compound 0.01 µM, first compound 0.001 µM) was 100% and the viability, T/C (second compound 0.01 µM, first compound 0.00316 µM) was 113%. For the same compound, the viability, T/C (second compound 0.01 µM, first compound 0.01 µM) was 98.5%, the viability, T/C [9] was 124% and the viability, T/C [10] was 99.3%. For the same compound, the viability, T/C (second compound 0.0316 µM, first compound 0.000316 µM) was 105%, the viability, T/C (second compound 0.0316 µM, first compound 0.001 µM) was 114% and the viability, T/C (second compound 0.0316 µM, first compound 0.00316 µM) was 108%. It also gave a viability, T/C (second compound 0.0316 µM, first compound 0.01 µM) of 110%, a viability, T/C [11] of 103% and a viability, T/C [12] of 103%. The viability, T/C (second compound 0.1 µM, first compound 0.000316 µM) was 108%, the viability, T/C (second compound 0.1 µM, first compound 0.001 µM) was 102% and the viability, T/C (second compound 0.1 µM, first compound 0.00316 µM) was 102%. The viability, T/C (second compound 0.1 µM, first compound 0.01 µM) was 110%, the viability, T/C [13] was 103% and the viability, T/C [14] was 113%. For the same compound, the viability, T/C (second compound 0.316 µM, first compound 0.000316 µM) was 82.8%, the viability, T/C (second compound 0.316 µM, first compound 0.001 µM) was 79.5% and the viability, T/C (second compound 0.316 µM, first compound 0.00316 µM) was 79.4%. For the same compound, the viability, T/C (second compound 0.316 µM, first compound 0.01 µM) was 86.1%, the viability, T/C [15] was 83.8% and the viability, T/C [16] was 90.6%. For the same compound, the viability, T/C (second compound 1 µM, first compound 0.000316 µM) was 60.8%, the viability, T/C (second compound 1 µM, first compound 0.001 µM) was 57.5% and the viability, T/C (second compound 1 µM, first compound 0.00316 µM) was 58.3%. The viability, T/C (second compound 1 µM, first compound 0.01 µM) was 55.4%, the viability, T/C [17] was 61.6% and the viability, T/C [18] was 56.5%.

In the case of COc1c(OCCCN2CCOCC2)ccc2c3n(c(=NC(=O)c4cnc(N)nc4)nc12)CCN3, the viability, T/C (compound 0.00316 µM) is reported as 101% [middle of 7 runs], the viability, T/C (compound 0.01 µM) is reported as 102% [middle of 7 runs] and the viability, T/C (compound 0.0316 µM) is reported as 84.5% [middle of 7 runs]. The viability, T/C (compound 0.1 µM) was 42.1% [middle of 7 runs], the viability, T/C (compound 0.316 µM) was 14.9% [middle of 7 runs] and the viability, T/C (compound 1 µM) was 11.9% [middle of 7 runs]. The IC50 (compound alone, run of 04/25/2023) was 80.2 nM [middle of 7 runs].

In the case of CC(=O)c1c(C)c2cnc(Nc3ccc(N4CCNCC4)cn3)nc2n(C2CCCC2)c1=O, the viability, T/C (compound 0.000316 µM) is reported as 105% (2×) and 108%, the viability, T/C (compound 0.001 µM) is reported as 105% (2×) and 110% and the viability, T/C (compound 0.00316 µM) is reported as 109% and 99.2% and 92.1%. The viability, T/C (compound 0.01 µM) was 101% and 103% and 118%, the viability, T/C (compound 0.0316 µM) was 101% (2×) and 97.3% and the viability, T/C (compound 0.1 µM) was 94.9% and 101% and 110%. The IC50 (curve of compound) was > 100 nM.

Cn1nccc1Nc1nccc(-c2ccn(C(CO)c3ccc(Cl)c(F)c3)c(=O)c2)n1 (stereo not given) + COc1c(OCCCN2CCOCC2)ccc2c3n(c(=NC(=O)c4cnc(N)nc4)nc12)CCN3 was tested, and the IC50 [1] was > 10000 nM, the IC50 [2] was > 10000 nM and the IC50 [3] was > 10000 nM. For the same compound, the IC50 [4] was < 31.6 nM, the IC50 [5] was < 31.6 nM and the IC50 [6] was < 31.6 nM. It also gave a viability, T/C [7] of 100%, a viability, T/C [8] of 97% and a viability, T/C [19] of 106%. The viability, T/C [20] was 111%, the viability, T/C [21] was 102% and the viability, T/C [22] was 90.1%. For the same compound, the viability, T/C [9] was 104%, the viability, T/C [10] was 108% and the viability, T/C [23] was 97.8%. The viability, T/C [24] was 106%, the viability, T/C [25] was 94% and the viability, T/C [26] was 89.5%. It also gave a viability, T/C [11] of 75.8%, a viability, T/C [12] of 83.2% and a viability, T/C [27] of 69.5%. For the same compound, the viability, T/C [28] was 77.1%, the viability, T/C [29] was 66.5% and the viability, T/C [30] was 55.6%. The viability, T/C [13] was 38.2%, the viability, T/C [14] was 43.3% and the viability, T/C [31] was 41%. The viability, T/C [32] was 38.4%, the viability, T/C [33] was 34.7% and the viability, T/C [34] was 32%. For the same compound, the viability, T/C [15] was 16.6%, the viability, T/C [16] was 15.3% and the viability, T/C [35] was 12.2%. It also gave a viability, T/C [36] of 9.87%, a viability, T/C [37] of 9.43% and a viability, T/C [38] of 7.53%. The viability, T/C [17] was 10.9%, the viability, T/C [18] was 9.68% and the viability, T/C [39] was 7.11%. The viability, T/C [40] was 5.54%, the viability, T/C [41] was 4.07% and the viability, T/C [42] was 2.53%.

With CC1(C)CCC(CN2CCN(c3ccc(C(=O)NS(=O)(=O)c4ccc(NCC5CCOCC5)c([N+](=O)[O-])c4)c(Oc4cnc5[nH]ccc5c4)c3)CC2)=C(c2ccc(Cl)cc2)C1 + CC(Nc1ccc2c(c1)OCCn1cc(N3C(=O)OCC3C(F)F)nc1-2)C(N)=O the IC50 [1] was 5510 nM, the IC50 [2] was 5660 nM and the IC50 [3] was 5410 nM. The IC50 [4] was 4710 nM, the IC50 [5] was 2190 nM and the IC50 [6] was 609 nM. For the same compound, the viability, T/C [7] was 93.1%, the viability, T/C [8] was 92.4% and the viability, T/C [19] was 95.5%. For the same compound, the viability, T/C [20] was 89.4%, the viability, T/C [21] was 81.3% and the viability, T/C [22] was 16.9%. The viability, T/C [9] was 100%, the viability, T/C [10] was 93.2% and the viability, T/C [23] was 98.5%. The viability, T/C [24] was 90.7%, the viability, T/C [25] was 84.2% and the viability, T/C [26] was 16.5%. The viability, T/C [11] was 92.6%, the viability, T/C [12] was 86.3% and the viability, T/C [27] was 89.5%. For the same compound, the viability, T/C [28] was 93.2%, the viability, T/C [29] was 78.3% and the viability, T/C [30] was 17%. The viability, T/C [13] was 94.1%, the viability, T/C [14] was 102% and the viability, T/C [31] was 90.4%. For the same compound, the viability, T/C [32] was 90.9%, the viability, T/C [33] was 67.2% and the viability, T/C [34] was 17%. It also gave a viability, T/C [15] of 79.7%, a viability, T/C [16] of 69.7% and a viability, T/C [35] of 78.2%. The viability, T/C [36] was 60.1%, the viability, T/C [37] was 44.8% and the viability, T/C [38] was 16.5%. For the same compound, the viability, T/C [17] was 51.6%, the viability, T/C [18] was 49.7% and the viability, T/C [39] was 51.8%. It also gave a viability, T/C [40] of 49.2%, a viability, T/C [41] of 35.8% and a viability, T/C [42] of 14%.
